Consider 29 compounds from patent US12012374B2, “Agonists of ROR GAMMAt” (BRISTOL-MYERS SQUIBB COMPANY, priority 2019, dated 2024).

One may read the EC50 as the concentration giving half of the maximal effect. Read a high EC50 as weaker potency.

Molecules are shown by their SMILES.

This test concerns the target T1, human RORgT (Homo sapiens, UniProt P51449).
T1 construct: expressed in transfected cells; host or cells: engineered Jurkat cells (Jurkat pEx/Gal/hRORγ CLBD/HYG pG5luc/blast)
T1 sequence (P51449 267-516): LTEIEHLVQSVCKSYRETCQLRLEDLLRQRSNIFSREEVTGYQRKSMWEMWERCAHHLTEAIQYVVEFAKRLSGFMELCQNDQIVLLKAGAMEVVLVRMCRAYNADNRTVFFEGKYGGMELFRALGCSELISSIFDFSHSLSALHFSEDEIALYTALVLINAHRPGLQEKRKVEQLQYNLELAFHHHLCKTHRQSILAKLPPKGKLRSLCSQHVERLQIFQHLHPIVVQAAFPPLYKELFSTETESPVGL
Kind of test: RORgT Gal4 Luciferase Reporter Gene Assay. Type of test: cell-based. The note with it: engineered Jurkat cells overexpressing RORgT (LBD or full length) fused with Gal4 Luc reporter; 18 hours incubation. (In general: Reporter assays use an easily measured gene product as a stand-in for the process of interest.)
For the compound `O=S(=O)(c1ccccc1)C1(c2ccc(OCc3ccccc3)cc2)CCCC1` [Example 6, 1-[1-(benzenesulfonyl)cyclopentyl]-4-(benzyloxy)benzene], the half-maximal effective concentration (EC50) came out at 130 nM. This lies in the sub-micromolar range.
Under `C[C@H](Oc1ccc([C@]2(S(=O)(=O)c3ccc(F)cc3)CCN(C(=O)C3CCS(=O)(=O)CC3)C2)cc1)c1ccccc1` [Example 37, 4-[(3R)-3-(4-fluorobenzenesulfonyl)-3-{4-[(1S)-1-phenylethoxy]phenyl}pyrrolidine-1-carbonyl]-1λ^6-thiane-1,1-dione] stands 77 nM; under `O=C(N1CC[C@](c2ccc(OCc3c(F)cccc3C(F)(F)F)cc2)(S(=O)(=O)c2ccc(F)cc2)C1)C1(O)CCS(=O)(=O)CC1` [Example 43, 4-[(3R)-3-(4-{[2-fluoro-6-(trifluoromethyl)phenyl]methoxy}phenyl)-3-(4-fluorobenzenesulfonyl)pyrrolidine-1-carbonyl]-4-hydroxy-1λ^6-thiane-1,1-dione], 14 nM.
Under `O=C(C1CCS(=O)(=O)CC1)N1CC[C@](c2ccc(OCc3c(Cl)cccc3Cl)cc2)(S(=O)(=O)c2ccccc2)C1` [Example 33, 4-[(3R)-3-(benzenesulfonyl)-3-{4-[(2,6-dichlorophenyl)methoxy]phenyl}pyrrolidine-1-carbonyl]-1λ^6-thiane-1,1-dione] stands 32 nM; under `O=C(Cc1ccncc1)N1CCC(c2ccc(OCc3c(Cl)cccc3Cl)cc2)(S(=O)(=O)c2ccccc2)C1` (centres unmarked) [Example 26, 1-[3-(benzenesulfonyl)-3-{4-[(2,6-dichlorophenyl)methoxy]phenyl}pyrrolidin-1-yl]-2-(pyridin-4-yl)ethan-1-one], 77 nM; under `O=C(N1CC[C@](c2ccc(OCc3c(Cl)cccc3C(F)(F)F)cc2)(S(=O)(=O)c2ccc(F)cc2)C1)C1(O)CCS(=O)(=O)CC1` [Example 46, 4-[(3R)-3-(4-{[2-chloro-6-(trifluoromethyl)phenyl]methoxy}phenyl)-3-(4-fluorobenzenesulfonyl)pyrrolidine-1-carbonyl]-4-hydroxy-1λ^6-thiane-1,1-dione], 42 nM.
`O=C(C1CCS(=O)(=O)CC1)N1CCC(c2ccc(OCc3c(F)ccc(F)c3Cl)cc2)(S(=O)(=O)c2ccccc2)C1` (centres unmarked) [Example 27, 4-[3-(benzenesulfonyl)-3-{4-[(2-chloro-3,6-difluorophenyl)methoxy]phenyl}pyrrolidine-1-carbonyl]-1λ^6-thiane-1,1-dione] displayed an EC50 of 109 nM.
To `O=S(=O)(c1ccccc1)C1(c2ccc(OCc3ccccc3F)cc2)CCCC1` [Example 13, 1-[1-(benzenesulfonyl)cyclopentyl]-4-[(2-fluorophenyl)methoxy]benzene] belongs 203 nM; to `O=C(O)[C@H]1CC[C@H](C(=O)N2CC[C@](c3ccc(OCc4c(Cl)cccc4Cl)cc3)(S(=O)(=O)c3ccc(F)cc3)C2)CC1` [Example 35, (1r,4r)-4-[(3R)-3-{4-[(2,6-dichlorophenyl)methoxy]phenyl}-3-(4-fluorobenzenesulfonyl)pyrrolidine-1-carbonyl]cyclohexane-1-carboxylic acid], 58 nM; to `O=S(=O)(c1ccccc1)C1(c2ccc(OCc3ccc(F)cc3)cc2)CCCC1` [Example 12, 1-[1-(benzenesulfonyl)cyclopentyl]-4-[(4-fluorophenyl)methoxy]benzene], 87 nM.
In turn, `O=S(=O)(c1ccc(F)cc1)C1(c2ccc(OCc3ccccc3F)cc2)CCCC1` [Example 7, 1-[1-(4-fluorobenzenesulfonyl)cyclopentyl]-4-[(2-fluorophenyl)methoxy]benzene] displayed an EC50 of 723 nM. This EC50 is about 8.3-fold higher than that of the compound before.
Under `O=C1NC(=O)C(CC(=O)N2CCC(c3ccc(OCc4ccccc4)cc3)(S(=O)(=O)c3ccc(F)cc3)C2)S1` (centres unmarked) [Example 20, 5-(2-{3-[4-(benzyloxy)phenyl]-3-(4-fluorobenzenesulfonyl)pyrrolidin-1-yl}-2-oxoethyl)-1,3-thiazolidine-2,4-dione] stands 810 nM; under `O=C(C1CCS(=O)(=O)CC1)N1CCC(c2ccc(OCc3ccccc3C(F)(F)F)cc2)(S(=O)(=O)c2ccccc2)C1` (centres unmarked) [Example 32, 4-[3-(benzenesulfonyl)-3-(4-{[2-(trifluoromethyl)phenyl]methoxy}phenyl)pyrrolidine-1-carbonyl]-1λ^6-thiane-1,1-dione], 84 nM.
In turn, `O=C(O)[C@H]1CC[C@H](C(=O)N2CC[C@](c3ccc(OCc4c(F)cccc4C(F)(F)F)cc3)(S(=O)(=O)c3ccc(F)cc3)C2)CC1` [Example 42, (1r,4r)-4-[(3R)-3-(4-{[2-fluoro-6-(trifluoromethyl)phenyl]methoxy}phenyl)-3-(4-fluorobenzenesulfonyl)pyrrolidine-1-carbonyl]cyclohexane-1-carboxylic acid] yielded an EC50 of 47 nM. This EC50 lies about 1.8-fold lower than the previous one.
Consider `O=C(Cn1ccnn1)N1CCC(c2ccc(OCc3ccccc3)cc2)(S(=O)(=O)c2ccc(F)cc2)C1` (centres unmarked) [Example 17, 1-{3-[4-(benzyloxy)phenyl]-3-(4-fluorobenzenesulfonyl)pyrrolidin-1-yl}-2-(1H-1,2,3-triazol-1-yl)ethan-1-one], for which the concentration for a half-maximal effect (EC50) was 526 nM.
Turning to `O=C(O)[C@H]1CC[C@H](C(=O)N2CC[C@](c3ccc(OCc4c(Cl)cccc4C(F)(F)F)cc3)(S(=O)(=O)c3ccc(F)cc3)C2)CC1` [Example 47, (1r,4r)-4-[(3R)-3-(4-{[2-chloro-6-(trifluoromethyl)phenyl]methoxy}phenyl)-3-(4-fluorobenzenesulfonyl)pyrrolidine-1-carbonyl]cyclohexane-1-carboxylic acid], the EC50 was found to be 293 nM.
As for `O=C(O)[C@H]1CC[C@H](C(=O)N2CC[C@](c3ccc(OCc4c(F)cccc4C(F)(F)F)cc3)(S(=O)(=O)c3ccccc3)C2)CC1` [Example 41, (1r,4r)-4-[(3R)-3-(benzenesulfonyl)-3-(4-{[2-fluoro-6-(trifluoromethyl)phenyl]methoxy}phenyl)pyrrolidine-1-carbonyl]cyclohexane-1-carboxylic acid], the EC50 came to 88 nM. Against the preceding compound, the EC50 is about 3.3-fold lower.
Under `O=C(C1CCS(=O)(=O)CC1)N1CC[C@](c2ccc(OCc3c(Cl)cccc3Cl)cc2)(S(=O)(=O)c2ccc(F)cc2)C1` [Example 36, 4-[(3R)-3-{4-[(2,6-dichlorophenyl)methoxy]phenyl}-3-(4-fluorobenzenesulfonyl)pyrrolidine-1-carbonyl]-1λ^6-thiane-1,1-dione] stands 17 nM; under `O=C(Cc1ccncc1)N1CCC(c2ccc(OCc3ccccc3)cc2)(S(=O)(=O)c2cccc(C(F)(F)F)c2)C1` (centres unmarked) [Example 22, 1-{3-[4-(benzyloxy)phenyl]-3-[3-(trifluoromethyl)benzenesulfonyl]pyrrolidin-1-yl}-2-(pyridin-4-yl)ethan-1-one], 514 nM; under `O=C(C1CCS(=O)(=O)CC1)N1CCC(c2ccc(OCc3c(F)cccc3C(F)(F)F)cc2)(S(=O)(=O)c2ccccc2)C1` (centres unmarked) [Example 30, 4-[3-(benzenesulfonyl)-3-(4-{[2-fluoro-6-(trifluoromethyl)phenyl]methoxy}phenyl)pyrrolidine-1-carbonyl]-1λ^6-thiane-1,1-dione], 28 nM.
In the case of `O=S(=O)(c1ccc(F)cc1)C1(c2ccc(OCCc3ccccc3)cc2)CCCC1` [Example 4, 1-[1-(4-fluorobenzenesulfonyl)cyclopentyl]-4-(2-phenylethoxy)benzene], it took 139 nM to reach a half-maximal effect (EC50).
Under `O=S(=O)(c1ccccc1)C1(c2ccc(OCCC3CC3)cc2)CCCC1` [Example 14, 1-[1-(benzenesulfonyl)cyclopentyl]-4-(2-cyclopropylethoxy)benzene] stands 423 nM; under `O=C(C1CCS(=O)(=O)CC1)N1CCC(c2ccc(OCc3c(Cl)cccc3Cl)cc2)(S(=O)(=O)c2ccccc2)C1` (centres unmarked) [Example 23, 4-[3-(benzenesulfonyl)-3-{4-[(2,6-dichlorophenyl)methoxy]phenyl}pyrrolidine-1-carbonyl]-1λ^6-thiane-1,1-dione], 46 nM; under `O=C(C1CCS(=O)(=O)CC1)N1CCC(c2ccc(OCc3ccccc3Cl)cc2)(S(=O)(=O)c2ccccc2)C1` (centres unmarked) [Example 28, 4-[3-(benzenesulfonyl)-3-{4-[(2-chlorophenyl)methoxy]phenyl}pyrrolidine-1-carbonyl]-1λ^6-thiane-1,1-dione], 187 nM.
To `O=S(=O)(c1ccccc1)C1(c2ccc(OCc3cccc(F)c3)cc2)CCCC1` [Example 11, 1-[1-(benzenesulfonyl)cyclopentyl]-4-[(3-fluorophenyl)methoxy]benzene] belongs 397 nM.
To `NC(=O)N1CCC(C(=O)N2CCC(c3ccc(OCc4c(Cl)cccc4Cl)cc3)(S(=O)(=O)c3ccccc3)C2)CC1` (centres unmarked) [Example 25, 4-[3-(benzenesulfonyl)-3-{4-[(2,6-dichlorophenyl)methoxy]phenyl}pyrrolidine-1-carbonyl]piperidine-1-carboxamide] belongs 267 nM; to `O=S(=O)(c1cccc(C(F)(F)F)c1)C1(c2ccc(OCc3ccccc3)cc2)CCCC1` [Example 8, 1-(benzyloxy)-4-{1-[3-(trifluoromethyl)benzenesulfonyl]cyclopentyl}benzene], 382 nM; to `O=C(O)[C@H]1CC[C@H](C(=O)N2CCC(c3ccc(OCc4c(Cl)cccc4Cl)cc3)(S(=O)(=O)c3ccccc3)C2)CC1` (some centres unmarked) [Example 24, (1r,4r)-4-[3-(benzenesulfonyl)-3-{4-[(2,6-dichlorophenyl)methoxy]phenyl}pyrrolidine-1-carbonyl]cyclohexane-1-carboxylic acid], 552 nM.
In turn, `O=C(N1CC[C@](c2ccc(OCc3c(F)cccc3C(F)(F)F)cc2)(S(=O)(=O)c2ccccc2)C1)C1(O)CCS(=O)(=O)CC1` [Example 40, 4-[(3R)-3-(benzenesulfonyl)-3-(4-{[2-fluoro-6-(trifluoromethyl)phenyl]methoxy}phenyl)pyrrolidine-1-carbonyl]-4-hydroxy-1λ^6-thiane-1,1-dione] came in with an EC50 of 18 nM.
